What was measured:
LCAT = LCAT (Homo sapiens (Human), UniProt P04180); experiment: LCAT activity measurement (in vitro), HDL3 fraction from human plasma as enzyme source and acceptor; type: biochemical; conditions: HDL3 1 mg/mL from plasma of a healthy person, [14C]cholesterol, 37° C., approximately 16 hours; read-out: EC50 of LCAT activation
Description: A fraction composed of HDL3 (1.125<specific gravity <1.210 g/mL) was obtained from the plasma of a healthy person by density gradient centrifugation. The obtained fraction was dialyzed against phosphate-buffered saline (pH 7.4) and used as an enzyme source and an acceptor for LCAT. Each test drug was prepared by dissolution in dimethyl sulfoxide. [^14C]Cholesterol containing DTNB (Ellman's reagent, final concentration: 0.5 mM), mercaptoethanol (final concentration: 12.5 mM), and 0.6% bovine serum albumin was added to phosphate-buffered saline (pH 7.4) containing 1 mg/mL HDL3, and the test drug was further added thereto at varying concentrations to adjust the whole amount to 80 μL. This mixture was incubated at 37° C. for approximately 16 hours. Then, a mixed solution of hexane and isopropanol (mixing ratio=3:2) was added thereto to stop the reaction. After stirring, the hexane layer was collected, and this layer was evaporated to dryness. […] The radioactivity of a portion corresponding to cholesterol oleate was measured using an imaging analyzer BAS-2500 (manufactured by Fujifilm Corp.). […] The EC50 value of LCAT activation was calculated according to the expression given below relative to the LCAT activity in the sample non-supplemented with the test drug. […]

cynomolgus monkey = experiment: Drug efficacy test in cynomolgus monkeys (plasma HDL cholesterol); type: in vivo; conditions: oral, single dose of 10 mg/kg, from AUC before administration and 24 hours after administration
Description: Each test drug was dissolved in a propylene glycol (Sigma-Aldrich Corp.)-Tween 80 (Sigma-Aldrich Corp.) mixed solution [4/1 (v/v)] or a 0.5% (w/v) methylcellulose aqueous solution, and the solution was orally administered to a cynomolgus monkey for 1 or 7 days. At 1 or 7 day of administration period, blood was collected before administration and after administration, and plasma was obtained. The content of cholesterol in the plasma was measured using a commercially available assay kit (Cholesterol-E Wako, Wako Pure Chemical Industries, Ltd.). The lipoprotein profile was analyzed by HPLC (column: LipopropakXL, manufactured by Tosoh Corp.). The contents of HDL cholesterol and non-HDL cholesterol were calculated according to the following calculation expression: Content of HDL cholesterol=Content of cholesterol in the plasma×(Peak area of HDL cholesterol/Total sum of peaks) Content of non-HDL cholesterol=Content of cholesterol in the plasma×(Peak area of non-HDL cholesterol/Total sum of peaks)
The rate (%) of increase in HDL level after the administration of a single dose of 10 mg/kg compared with before administration was determined from the AUC before administration and 24 hours after administration.

Chain of LCAT (P04180 25-440): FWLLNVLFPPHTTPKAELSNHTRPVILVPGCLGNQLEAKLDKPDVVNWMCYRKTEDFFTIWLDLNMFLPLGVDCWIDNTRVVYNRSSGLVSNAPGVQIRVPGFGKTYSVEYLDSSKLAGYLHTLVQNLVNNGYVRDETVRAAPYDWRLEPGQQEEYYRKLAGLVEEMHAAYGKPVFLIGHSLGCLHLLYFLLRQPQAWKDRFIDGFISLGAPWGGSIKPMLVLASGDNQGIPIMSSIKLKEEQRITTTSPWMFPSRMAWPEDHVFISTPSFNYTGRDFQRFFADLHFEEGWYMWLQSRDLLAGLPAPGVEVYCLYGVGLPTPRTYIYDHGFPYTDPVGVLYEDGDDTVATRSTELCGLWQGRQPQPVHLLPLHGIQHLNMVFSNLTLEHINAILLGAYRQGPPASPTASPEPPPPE

Row | SMILES | EC50 (LCAT) [µM] | Rate of increase in HDL level after administration of single dose (cynomolgus monkey) [%]
1 | O=C1Nc2[nH]nc(C3CCN(c4cnc(C(F)(F)F)nc4)CC3)c2[C@@H](C(F)(F)F)[C@H]1O [Example 6(4), (+)-cis-5-Hydroxy-4-(trifluoromethyl)-3-{1-[2-(trifluoromethyl)pyrimidin-5-yl]piperidin-4-yl}-1,4,5,7-tetrahydro-6H-pyrazolo[3,4-b]pyridin-6-one] | 0.018 | 483
2 | O=C1Nc2[nH]nc(C3CCN(c4cnc(C(F)(F)F)cn4)CC3)c2C(O)(C(F)(F)F)C1O (single isomer, unassigned; (+)) [Example 1(4), (+)-4,5-Dihydroxy-4-(trifluoromethyl)-3-{1-[5-(trifluoromethyl)pyrazin-2-yl]piperidin-4-yl}-1,4,5,7-tetrahydro-6H-pyrazolo[3,4-b]pyridin-6-one] | 0.004 | 590
